These results are taken from patent US7642367B2, “Diamino-functional chalcones” (Lica Pharmaceuticals A/S, priority 2002, dated 2010).

By IC50 is commonly meant the concentration that inhibits the measured activity by half. As usually defined, the Solubility is how much of the substance goes into solution per volume. Low readings indicate little dissolved substance, high ones much dissolved substance. The term bioavailability denotes dose-corrected exposure relative to a reference, in per cent. Read a low bioavailability as poor availability. In general, MIC refers to the lowest concentration found to suppress growth. A low value points to greater potency.

Series [1] deals with Plasmodium falciparum 3D7. Kind of series: Plasmodium falciparum assay (3H-phenylalanine labelling). Type of series: cell-based.
The nature of series [2]: Determination of metabolic stability (liver microsomes). Type of series: in vitro ADME, Wistar rat. As to conditions: for Metabolic turn-over in vitro: rat liver microsomes, 20 μM, 15 min at 37° C. How it is done: incubations were performed with Wistar rat liver microsomes (0.25 mg/ml) in 2% sodium bicarbonate solution. NADP (0.13 mg/ml), glucose-6-phosphate (0.63 mg/ml) and glucose-6-phosophate dehydrogenase (0.38 units/ml) were used as NADPH generation system and UDPGA (0.48 mg/ml) was added to include the phase II reaction, glucuronic acid conjugation, in the assay. After 5 minutes of pre-incubation the reaction was started by addition of the test article to give a final concentration of 20 μM. Samples were incubated for 15 min at 37° C. and the reactions were terminated by addition of equal volumes of acetonitrile. Blank incubations were performed at the same concentration but without addition of microsomes. Both blank and microsome-containing samples were made in replicats of three. Prior to analysis samples were centrifuged for 10 min. at 3500 rpm, HPLC system:
Initial conditions were 40% mobile phase A (acetonitrile) and 60% mobile phase B (10 mM ammonium acetate pH 9.5). During the first 20 minutes, the mobile phase was changed via a linear gradient to 90% A and 10% B. This was followed by a 5 minutes linear gradient to initial conditions, which were maintained for 5 min. The flow rate was 0.20 ml/min and injection volume 10 μl.

Series [3] is described as follows: Determination of solubility in phosphate buffer pH 7.4. Type of series: physicochemical. As to conditions: aqueous buffer at pH 7.4. How it is done:
Solubility of the compounds was determined by preparing a saturated solution of compound in 0.3 M phosphate buffer (pH 7.4±0.3) in a brown glass tube. The suspensions were rotated slowly for 24 hours. Aliquots were centrifuged for 10 minutes at 14.000 rpm and supernatants were diluted in 40% (v/v) acetonitrile in water prior to HPLC analysis. Concentrations of analytes were quantified against a standard curve and used as term of solubility.
The HPLC-UV method used for the assessment of solubility is the same as used in the in vitro metabolism assay.

The test system of series [4] is Plasmodium berghei K173. Description: Multiple intra venous administration in Plasmodium berghei K173 infected mice. Type of series: in vivo. As to conditions: Plasmodium berghei K173 infected NMRI female mice, multiple intra venous administrations, FIG. 10. How it is done:
The doses stated were administered intra venously as solutions in a suitable vehicle.

For series [5] the following is noted: mice.
In series [6] the test system is Staphylococcus aureus ATCC29213. Description: MIC determination in broth microdilution assay. As to conditions: A: Staphylococcus aureus ATCC29213; NA: no activity.
For series [7], the system named is Staphylococcus aureus ATCC33591 (resistant to methicillin). Description: MIC determination in broth microdilution assay. The conditions noted are these: B: Staphylococcus aureus ATCC33591 (resistant to methicillin); NA: no activity. Background: Dilution methods test growth across graded concentrations, often in twofold steps.
The test system of series [8] is Staphylococcus intermedius #2357 (clinical isolate). Kind of series: MIC determination in broth microdilution assay. The conditions noted are these: C: Staphylococcus intermedius #2357; NA: no activity.
For series [9], the system named is Enterococcus faecalis ATCC29212. Kind of series: MIC determination in broth microdilution assay. The conditions noted are these: D: Enterococcus faecalis ATCC29212; NA: no activity.
Series [10] deals with Enterococcus faecium #17501 (vancomycin-resistant clinical isolate). Kind of series: MIC determination in broth microdilution assay. The conditions noted are these: E: Enterococcus faecium #17501 (vancomycin-resistant); NA: no activity.
Series [11] relates to Streptococcus pneumoniae #998 (clinical isolate). Kind of series: MIC determination in broth microdilution assay. The conditions noted are these: F: Streptococcus pneumoniae #998; NA: no activity.
Series [12] has as its system Eschericia coli ATCC25922. Description: MIC determination in broth microdilution assay. As to conditions: for MIC: G: Eschericia coli ATCC25922, NA: no activity.
The test system of another series is Eschericia coli ESS. Kind of series: MIC determination in broth microdilution assay. The conditions noted are these: for MIC: H: Eschericia coli ESS, NA: no activity.
The test system of another series is non-fastidious bacteria. Description: Activity against non-fastidious bacteria (panel). The conditions noted are these: pathogenic Gram-positive bacteria.
Series [13] deals with Plasmodium falciparum DD2 (Cq-res). The conditions noted are these: read-out: Plasmodium falciparum IC50.
For series [14], the system named is Plasmodium falciparum 7G8 (Cq-res). As to conditions: read-out: Plasmodium falciparum IC50.
The subject of series [15] is Plasmodium falciparum K1 (Cq-res). The conditions noted are these: read-out: Plasmodium falciparum IC50.
For series [16] the following is noted: mice. The source holds these as a separate data set.
In series [17] the test system is Plasmodium berghei K173. As to conditions: Plasmodium berghei K173 infected NMRI female mice, multiple oral administrations, FIG. 8.

In brackets after ≈: the same amount, converted by molar mass. Where two headings read alike, the source gives them in different places.

Take `CN(C)CCN(C)c1cccc(/C=C/C(=O)c2ccccc2CN(C)C)c1` [B074, (E)-3-{3-[(2-Dimethylamino-ethyl)-methyl-amino]-phenyl}-1-(2-dimethylaminomethyl-phenyl)-propenone]: the IC50 in series [1] (Plasmodium falciparum 3D7 (Table 2), read-out: IC50) was 0.6 µM. Also, in [2], the “Metabolic turn-over in vitro” value is reported as 0%. The Solubility in series [3] stood at 15400 µg/mL (≈ 42.1 mM). Besides, the effect on parasitaemia entry with Plasmodium berghei K173 [4] is reported as “significant decrease in the parasitaemia”.
In turn, `COc1ccccc1-c1ccc(/C=C/C(=O)c2ccc(O)c(CN(C)C)c2)c(N2CCN(C)CC2)c1` [B098, (E)-1-(3-Dimethylaminomethyl-4-hydroxy-phenyl)-3-[2′-methoxy-3-(4-methyl-piperazin-1-yl)-biphenyl-4-yl]-propenone] displayed a bioavailability in series [5] of 50%.
For the compound `Cc1cc(C)cc(-c2ccc(N3CCN(C)CC3)c(/C=C/C(=O)c3cccc(NCCN(C)C)c3)c2)c1` [B101, (E)-1-[3-(2-Dimethylamino-ethylamino)-phenyl]-3-[3′,5′-dimethyl-4-(4-methyl-piperazin-1-yl)-biphenyl-3-yl]-propenone], the “Metabolic turn-over in vitro” value in [2] is given as 3%. The MIC amounted to 4.7 µM (≈ 2.33 µg/mL) in series [6]; 4.7 µM (≈ 2.33 µg/mL) in series [7]; 9.4 µM (≈ 4.67 µg/mL) in series [8]; 4.7 µM (≈ 2.33 µg/mL) in series [9]; 4.7 µM (≈ 2.33 µg/mL) in series [10]; 4.7 µM (≈ 2.33 µg/mL) in [11]. Besides, the MIC in [12] is 9.4 µM (≈ 4.67 µg/mL); in the series with Eschericia coli ESS, 4.7 µM (≈ 2.33 µg/mL). Besides, in the series with non-fastidious bacteria, the “activity against Gram-positive non-fastidious bacteria” value was “increased potency”.
`COc1ccc(C(=O)/C=C/c2cc(-c3cc(C)cc(C)c3)ccc2N2CCN(C)CC2)c(CN(C)C)c1` [B102, (E)-1-(2-Dimethylaminomethyl-4-methoxy-phenyl)-3-[3′,5′-dimethyl-4-(4-methyl-piperazin-1-yl)-biphenyl-3-yl]-propenone]: the MIC in series [6] came to 4.7 µM (≈ 2.34 µg/mL); in series [7], 9.4 µM (≈ 4.68 µg/mL); in series [8] it was 18.8 µM (≈ 9.36 µg/mL); in series [9], 9.4 µM (≈ 4.68 µg/mL); in [10], 9.4 µM (≈ 4.68 µg/mL); in series [11], 4.7 µM (≈ 2.34 µg/mL). Besides, the MIC is 37.5 µM (≈ 18.7 µg/mL) in series [12] and 4.7 µM (≈ 2.34 µg/mL) with Eschericia coli ESS. Further, in the series with non-fastidious bacteria, the “activity against Gram-positive non-fastidious bacteria” value was “increased potency”.
Consider `COc1ccc(C(=O)/C=C/c2cc(-c3ccccc3)cc(N3CCN(C)CC3)c2)c(CN(C)C)c1` [B111, (E)-1-(2-Dimethylaminomethyl-4-methoxy-phenyl)-3-[5-(4-methyl-piperazin-1-yl)-biphenyl-3-yl]-propenone], for which the IC50 in [1] (3D7 (Cq-sen) (Table 3), read-out: Plasmodium falciparum IC50) came to 1.6 µM; in series [13], 1 µM; in [14], 1.3 µM; in series [15], 1 µM. In addition, the “Metabolic turn-over in vitro” value in series [2] turned out to be 4%. Besides, the Solubility in series [3] was 3100 µg/mL (≈ 6.6 mM).
Take `Cc1cc(C)cc(-c2ccc(N3CCNCC3)c(/C=C/C(=O)c3cccc(NCCN(C)C)c3)c2)c1` [B116, (E)-1-[3-(2-Dimethylamino-ethylamino)-phenyl]-3-(3′,5′-dimethyl-4-piperazin-1-yl-biphenyl-3-yl)-propenone]: the MIC was found to be 2.4 µM (≈ 1.16 µg/mL) in series [6]; 4.7 µM (≈ 2.27 µg/mL) in [7]; 4.7 µM (≈ 2.27 µg/mL) in series [8]; 4.7 µM (≈ 2.27 µg/mL) in series [9]; 4.7 µM (≈ 2.27 µg/mL) in [10]; 4.7 µM (≈ 2.27 µg/mL) in [11]. For the same compound, the MIC (in [12]; in the series on Eschericia coli ESS) was 4.7 µM (≈ 2.27 µg/mL) throughout. The “activity against E. coli ATCC25922” value in series [12] is listed as “high activity”. Moreover, in the series with Eschericia coli ESS, the “activity against ESS strain of E. coli” value is reported as “high activity”.
Consider `Cc1ccccc1-c1cc(/C=C/C(=O)c2ccccc2CN(C)C)cc(N(C)CCN(C)C)c1` [B119, (E)-3-{5-[(2-Dimethylamino-ethyl)-methyl-amino]-2′-methyl-biphenyl-3-yl}-1-(2-dimethylaminomethyl-phenyl)-propenone], for which the “metabolism” value in [2] (rat) is 8.6%; in series [16], 75%. Also, the “Metabolic turn-over in vitro” value in series [2] is 9%. Also, the “effect on infection (parasitaemia)” value in the series with Plasmodium berghei K173 [17] is reported as “inhibit the development of the infection”.
